Test results: patent US11628179B2, “Compounds for treating and preventing extracellular histone mediated pathologies” (priority 2017, dated 2023)
“And” between values parts separate entries of the source, which are not always exact repeats. Identical values can stand only once.

What was measured:
human platelets = assay: Histone-induced platelet aggregation; assay type: cell-based; details: compounds added prior to histones 150 μg/mL
Wistar rats [1] = assay: Rat caecal ligation and puncture (CLP), severe sepsis; assay type: in vivo
Description: Rat caecal ligation and puncture (CLP) assay for sepsis. The CLP assay was performed in male Wistar rats as previously described (see Hubbard, W. J. et al. Cecal ligation and puncture. Shock 24 Suppl 1, 52-57 (2005).). Test compounds (50 mg kg^−1) dissolved in saline or an equivalent volume of saline only (Control cohort) were administered i.p. 5 min pre-CLP and 5, 10 and 15 h post-op until cessation of the experiment at 20 h. Sham-CLP rats underwent the same procedure, however, the caecum was not ligated or punctured and these rats received saline at the same times as above. At the conclusion of the experimental time period (20 h) or when morbidity required ethical euthanasia, the rats were anaesthetised and blood was collected via cardiac puncture into EDTA for subsequent analysis of liver (ALT) and kidney (creatinine) function by the Department of Pathology, The Canberra Hospital. The propensity for clots to form within the blood samples of the saline treated control CLP animals (despite the presence of EDTA) prevented successful analysis of plasma samples from all animals.

human RBCs [2] = assay: Histone-induced RBC aggregation (flow cytometry autofluorescence, SEM); assay type: cell-based; details: 0-200 μg/mL added prior to 400 μg/mL histones
human RBCs [3] = assay: Histone-induced RBC fragility / lysis under shear; assay type: cell-based; details: 0-200 μg/mL prior to 400 μg/mL histones 60 min; 100 mm/s, 40× repetitions
mice = assay: In-vivo histone toxicity assay, organ damage markers at 4 hr; set-up: species or system mouse; details: 6.25, 25 and 100 mg/kg i.p. 10 min prior to histones 50 mg/kg i.v.; blood at 4 hr
[4] = Lipid bilayer assay (histone rupture of bilayers)
Description: Lipid bilayer assays. Artificial lipid bilayers, prepared as previously described (Rebbeck, R. T. et al. The beta (1a) subunit of the skeletal DHPR binds to skeletal RyR1 and activates the channel via its 35-residue C-terminal tail. Biophys J 100, 922-930, doi:10.1016/j.bpj.2011.01.022 (2011).), separated symmetrical 150 mM or 250 mM KCl (pH ˜5.5) solutions. Histones (1 μM, 15.2 μg ml^−1) were added to bilayers alone or after 0.5-3 h incubation with 10 μM CBS (3.5 μg ml^−1) or 10 μM MTS (5.1 μg ml^−1) at −20° C. Current was recorded continuously after histone addition until the bilayers broke or the experiment was terminated.
To examine this possibility artificial lipid bilayers were prepared and their susceptibility to histone rupture detected by changes in current across the bilayers.

C57BL/6 mice = assay: Murine deep vein thrombosis (DVT) model, histone-mediated; assay type: in vivo, mouse; details: CBS 50 mg/kg i.v. 5 min after histones 10 mg/kg i.v., 48 h
Description: Murine deep vein thrombosis (DVT) model. The procedure used is largely as previously described (see Brill, A. et al. Neutrophil extracellular traps promote deep vein thrombosis in mice. J Thromb Haemost 10, 136-144, doi: 10.1111/j.1538-7836.2011.04544.x (2012)). […] The peritoneum and skin were closed following which all mice received an i.v. injection of histones via the tail vein (10 mg kg^−1) or an equivalent volume of saline followed 5 min later by an i.v. injection of test compounds (50 mg kg^−1) or saline. Mice were monitored for 48 h after which they were re-anesthetised, re-opened and any thrombi that had developed distal to the IVC stenosis were removed for analysis. Sham operated control animals received laparotomy and 90% ligation of the IVC, however the ligation was removed immediately after occlusion of the IVC.

[5] = mCBS vs CBS levels in phosphate buffered pH 7.5 clinical trial formulation stored at 2-8° C. (CAD); assay type: physicochemical
[6] = Stability of mCBS vs CBS in formulated clinical material (HPLC); assay type: physicochemical; details: formulated clinical material in phosphate buffer, 5±3° C., 25±2° C./60% RH, 40±2° C./75% RH
Description: Stability studies were carried out at 5±3° C., 25±2° C./60% RH and 40±2° C./75% RH ° C. conditions. Levels of both mCBS and cellobiose sulfate (CBS) were tracked in formulated clinical material (i.e. mCBS in phosphate buffer) via HPLC.

Wistar rats [7] = assay: Rat cardiac IRI model; assay type: in vivo; details: 30 mg kg−1 into left ventricle 5 min prior to reperfusion
Description: Rat cardiac IRI model. […] Male Wistar rats were anaesthetised with isofluorane, intubated via tracheostomy and ventilated with a tidal volume of 1 ml 150 g^−1 and a respiratory rate of 65 breaths min^−1. Supplemental oxygen was delivered at a FiO2 of ˜30%. A left hemi-thoracotomy was performed to enable visualisation of the left ventricle. The left coronary arterial plexus (LCA) was occluded using an atraumatic snare for 30 min prior to reperfusion for 30 min. Ischemia was confirmed by myocardial hyperaemia. The test compounds (30 mg kg^−1) or an equivalent volume (200 μl) of saline were injected into the lumen of the left ventricle (confirmed with aspiration) 5 min prior to the release of the snare for the reperfusion phase.
At the conclusion of reperfusion (30 min), Thioflavin S (1 ml 200 g^−1 of body weight) was slowly injected into the lumen of the left ventricle, to define the territory of microvascular obstruction (MVO) within the ischemic zone (IZ). The IZ territory was determined by the re-occlusion of the atraumatic snare and infusion of blue microspheres into the left ventricle (Unisperse Blue, BASF), distributed within solutions via ultrasonication using a CD-6800 (Unisonics) sonicator. […] Planimetry (Image J, Freeware) was used to quantify the areas of the IZ, MVO and necrosis.

[8] = system: Human platelets in whole blood; assay: Histone-induced platelet degranulation (ATP release); assay type: cell-based; details: compounds added prior to histones 400 μg/mL
[9] = mCBS vs CBS levels in bulk powder stored at −20° C. (CAD); assay type: physicochemical
Description: Table 2b compares mCBS vs CBS levels in a representative batch of bulk powder when stored at −20° C. over 24 months. T is for time in months. T=0 or T0 represents analytical results carried out on completion of manufacture. Subsequent analysis indicated are relative to the initial analysis of the drug powder or formulation (e.g. […] Analytical method employing CAD (Charged Aerosol Detector) was used to measure the level of mCBS purity and its impurities and expressed as CAD %.

human liver microsomes = assay: Phase I metabolism in human liver microsomes; details: 1 μM, 1 h incubation, NADPH, 0.3 mg/ml microsomes
Description: (§1) A stock concentration of 25 μM mCBS dissolved in 50% methanol in water was added to the reaction tubes (10 μL). […] Samples were then vortex-mixed and centrifuged for 10 min at 14,000 rpm. Half of the samples (375 μl) were transferred to glass tubes and evaporated under a stream of nitrogen and at 37° C. Samples were then reconstituted in mobile phase A (250 μL). The final concentration of mCBS was 1 μM in the incubation medium.
(§2) The reaction mixtures were incubated for 1 hour with sampling in triplicate at 0, 15, 30, 45 and 60 min time points. A negative control (no NADPH) was used in parallel with the study samples. A positive control; midazolam, 25 μM (10 μL) was incubated in the same condition for 1 h. The final concentration of midazolam was 1 μM in the incubation medium

rat liver microsomes = assay: Phase I metabolism in rat liver microsomes; details: 1 μM, 1 h incubation, NADPH, 0.3 mg/ml microsomes
Description: as §1, §2

dog liver microsomes = assay: Phase I metabolism in dog liver microsomes; details: 1 μM, 1 h incubation, NADPH, 0.3 mg/ml microsomes
Description: as §1, §2

Solubility in vehicle = assay type: physicochemical; details: in water/aqueous
Description: The STX studies described below were carried out inter alia to provide a preliminary understanding of the toxicity and PK profile of β-O-methyl cellobioside sulfate compounds such as mCBS.Na utilised in the present invention.

Sprague Dawley rats = system: Sprague Dawley rats
Description: This study examined acute toxicity from single IV administration of mCBS in rats with doses up to 1000 mg/kg.
The acute toxicity of β-O-methyl cellobioside sulfate (mCBS) was assessed in Sprague Dawley rats following intravenous administration of a single bolus dose. A total of five groups of n=3 adult female rats were treated with 10, 30, 100, 300 and 1000 mg/kg doses of mCBS test item in the form of the sodium salt (mCBS.Na) in this dose range finding study. […] The rats were then observed for 7 days prior to termination without necropsy.

Sprague-Dawley rats = details: 5575 mg/kg/day of mCBS (free base), continuous IV infusion 7 days
Description: The objective of these studies was to determine the toxicity of the test item, mCBS, when administered by continuous (24 hours/day) intravenous infusion through a surgically implanted catheter for 7 consecutive days to Sprague-Dawley rats.
The test and control item dose formulations of mCBS (in the form of the heptasodium salt mCBS.Na) were administered to groups of rats by continuous (24 hours/day) intravenous infusion for 7 consecutive days as described in the Table 14 below.
Parameters monitored during this study included mortality, clinical observations, body weights and food consumption. In addition, hematology, coagulation and clinical chemistry parameters were evaluated on Day 9. Blood samples were collected from the animals at timepoints relative to the start of the infusion for analysis of test item concentration in plasma. At termination (Day 9), all animals were euthanized and subjected to a gross necropsy examination. Organ weights were measured on selected organs and a selected list of tissues, including gross lesions, were retained and prepared for microscopic evaluation.

whole blood coagulation = assay: ROTEM whole blood coagulation analysis (anticoagulant effect of compounds); details: NATEM assay, 50 and 100 μg/mL

cellobiose sulfate [CBS]
histone-induced platelet aggregation (human platelets): significantly reduced | high ALT and creatinine levels (liver and kidney damage) (Wistar rats [1]; CBS treated animals): not seen | mortality (Wistar rats [1]; CBS treatment group vs controls): no mortalities | inhibition of histone-induced RBC aggregation (human RBCs [2]): inhibit histone-induced RBC aggregation in a dose dependent manner | inhibition of histone-induced RBC lysis under shear (human RBCs [3]): inhibit histone-induced lysis under shear in a dose-dependent manner | protection from histone-induced organ damage (LDH, ALT, creatinine) (mice): protects animals from histone-mediated injury | incidence of rapid bilayer rupture ([4]; histones 1 μM + CBS, 3 of 52 bilayers, within 0.3 to 0.5 min): 5.8% | average bilayer lifetime ([4]; histones 1 μM in the presence of CBS 10 μM): 18 ± 4 min and 36 ± 5 min | histone-mediated deep vein thrombosis (C57BL/6 mice): almost totally inhibited | level in phosphate buffered pH 7.5 formulation ([5]; 2-8° C., T0 (months)): 0.25 CAD % | level in phosphate buffered pH 7.5 formulation ([5]; 2-8° C., T2): 0.03 CAD % | level in phosphate buffered pH 7.5 formulation ([5]; 2-8° C., T3): 0.07 CAD % | level in phosphate buffered pH 7.5 formulation ([5]; 2-8° C., T7): 0.03 CAD % | level in phosphate buffered pH 7.5 formulation ([5]; 2-8° C., T10): 0.04 CAD % | level in phosphate buffered pH 7.5 formulation ([5]; 2-8° C., T13): 0.04 CAD % | level in phosphate buffered pH 7.5 formulation ([5]; 2-8° C., T19): <0.03 CAD % | stability when stored in aqueous buffered solution ([5]; 2-8° C., over 18 months): highly unstable | level reduced to (detection limit) ([5]; aqueous buffered solution, within 3-6 month of storage at 2-8° C.): 0.03 CAD % | level relative to starting amount (T=0) over time [6]: drops very rapidly and is almost gone by around 3 months | area of microvascular obstruction (Wistar rats [7]): significantly reduced | reduction of myocardial necrosis in the ischemic zone (Wistar rats [7]): 50% | histone-induced platelet degranulation (ATP release) [8]: significantly reduced | stability when stored in powder ([9]; 24 months): stable | level in bulk powder ([9]; T0 (months)): 0.23 CAD % | level in bulk powder ([9]; T1): 0.25 CAD % | level in bulk powder ([9]; T3): 0.28 CAD % | level in bulk powder ([9]; T6): 0.32 CAD % | level in bulk powder ([9]; T9): 0.36 CAD % | level in bulk powder ([9]; T12): 0.36 CAD % | level in bulk powder ([9]; T18): 0.36 CAD % | level in bulk powder ([9]; T24): 0.29 CAD %

Cc1ncc2n1-c1ccc(Cl)cc1C(c1ccccc1F)=NC2 [midazolam]
phase I metabolic stability (human liver microsomes): almost completely metabolised | phase I metabolic stability (rat liver microsomes): almost completely metabolised | phase I metabolic stability (dog liver microsomes): almost completely metabolised

Sodium β-O-Methyl Cellobioside Sulfate [mCBS.Na]
Solubility in Vehicle (Solubility in vehicle): ~250 mg/mL in water/aqueous | MTD estimate from potency assessment, sodium salt (Sprague Dawley rats; IV bolus single and 7-day studies, corrected for potency): ~745 mg/kg | maximum tolerated dose (MTD) (Sprague Dawley rats; single IV bolus, female rats, 7 days observation, dose as sodium salt): 1000 mg/kg | mortality (Sprague-Dawley rats): death of one female

O=C[C@H](O)[C@@H](O)[C@H](O[C@@H]1O[C@H](CO)[C@@H](O)[C@H](O)[C@H]1O)[C@H](O)CO [CB, cellobiose]
histone-induced platelet aggregation (human platelets): no inhibitory activity | protection from histone-induced organ damage (LDH, ALT, creatinine) (mice): inactive | histone-induced platelet degranulation (ATP release) [8]: no inhibitory activity

melezitose sulfate
clot formation (whole blood coagulation): No clotting was detected | clot formation (whole blood coagulation; listed as melezitose): no clot was detected
